The values below are quoted from earlier work in patent US6458790B2, “Substituted piperidines as melanocortin receptor agonists” (Merck & Co., Inc., priority 2000, dated 2002).

Series [1] concerns men with erectile dysfunction. The settings on record: for duration of effect / onset of action: after an oral dose; for share of men/patients in whom effective (adequate response): oral.
Series [2] has as its system males with psychogenic erectile dysfunction.
Setting [3] is: subcutaneous injection formulation.

As for `Cc1ccc(N(CC2=NCCN2)c2cccc(O)c2)cc1` [phentolamine], in series [1], the duration of effect is 2 h, the onset of action was 5 to 30 min and the “share of men/patients in whom effective (adequate response)” value is recorded as 35-40%.
Turning to “Ac-Nle-c[Asp-His-DPhe-Arg-Trp-Lys]-NH2 [MT-II]”, in series [2] (human, in vivo, po), the “absorption into the systemic circulation” value is listed as “not absorbed into the systemic circulation”. Moreover, the response rate in series [2] (injected intramuscularly or subcutaneously) was 75%. Also, in series [2] (setting [3]), the duration of action result is recorded as “approximately 2.5 hours” and the “time to onset of erection” value is 10 to 20 min.
Take `CCCc1nn(C)c2c(=O)[nH]c(-c3cc(S(=O)(=O)N4CCN(C)CC4)ccc3OCC)nc12` [Sildenafil]: in series [1], the duration of effect entry is reported as “about 4 hours”, the onset of action is 30 to 60 min and the “share of men/patients in whom effective (adequate response)” value was “about 70%”.
